Columns and labels:
Vasopressin V1a receptor = Vasopressin V1a receptor (Homo sapiens, UniProt P37288)
Description: Inhibition of Vasopressin V1A receptor (unknown origin)

[1] = molecular target: T1, Amine oxidase [flavin-containing] B (Homo sapiens, UniProt P27338)
T1 sequence (P27338 whole entry): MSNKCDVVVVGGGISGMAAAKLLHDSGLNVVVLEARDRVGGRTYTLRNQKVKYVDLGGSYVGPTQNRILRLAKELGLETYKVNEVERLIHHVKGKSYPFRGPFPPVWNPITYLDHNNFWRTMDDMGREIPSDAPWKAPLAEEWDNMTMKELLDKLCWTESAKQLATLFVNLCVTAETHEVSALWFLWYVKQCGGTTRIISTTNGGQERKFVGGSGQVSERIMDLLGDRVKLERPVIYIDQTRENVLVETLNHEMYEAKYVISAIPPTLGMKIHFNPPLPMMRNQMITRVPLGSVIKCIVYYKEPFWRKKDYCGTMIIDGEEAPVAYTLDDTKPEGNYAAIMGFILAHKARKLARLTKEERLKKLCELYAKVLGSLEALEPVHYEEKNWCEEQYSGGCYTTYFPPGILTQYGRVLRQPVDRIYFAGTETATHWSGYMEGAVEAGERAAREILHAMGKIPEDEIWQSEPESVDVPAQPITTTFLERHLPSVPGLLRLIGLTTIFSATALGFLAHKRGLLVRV
Description: Inhibition of MAO-B (unknown origin) measured by MAO-GloTM method

[2] = molecular target: T2, Amine oxidase [flavin-containing] A (Homo sapiens, UniProt P21397)
T2 sequence (P21397 whole entry): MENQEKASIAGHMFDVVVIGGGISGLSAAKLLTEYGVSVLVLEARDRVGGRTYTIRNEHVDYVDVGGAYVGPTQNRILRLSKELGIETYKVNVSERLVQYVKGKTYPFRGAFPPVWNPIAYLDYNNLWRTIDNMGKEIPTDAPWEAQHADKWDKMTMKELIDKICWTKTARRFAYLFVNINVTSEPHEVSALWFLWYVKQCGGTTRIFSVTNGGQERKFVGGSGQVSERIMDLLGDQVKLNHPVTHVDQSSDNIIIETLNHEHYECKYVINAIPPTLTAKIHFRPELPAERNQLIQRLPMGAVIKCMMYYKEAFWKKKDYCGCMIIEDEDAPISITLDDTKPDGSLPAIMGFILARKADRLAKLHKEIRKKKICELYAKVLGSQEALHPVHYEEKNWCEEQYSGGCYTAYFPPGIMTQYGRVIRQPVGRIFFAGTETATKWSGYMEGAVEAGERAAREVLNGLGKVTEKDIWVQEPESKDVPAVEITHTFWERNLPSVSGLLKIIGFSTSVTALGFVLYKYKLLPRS
Description: Inhibition of MAO-A (unknown origin) measured by MAO-GloTM method

D(4) dopamine receptor [3] = molecular target: T3, D(4) dopamine receptor (Homo sapiens, UniProt P21917)
T3 sequence (P21917 whole entry): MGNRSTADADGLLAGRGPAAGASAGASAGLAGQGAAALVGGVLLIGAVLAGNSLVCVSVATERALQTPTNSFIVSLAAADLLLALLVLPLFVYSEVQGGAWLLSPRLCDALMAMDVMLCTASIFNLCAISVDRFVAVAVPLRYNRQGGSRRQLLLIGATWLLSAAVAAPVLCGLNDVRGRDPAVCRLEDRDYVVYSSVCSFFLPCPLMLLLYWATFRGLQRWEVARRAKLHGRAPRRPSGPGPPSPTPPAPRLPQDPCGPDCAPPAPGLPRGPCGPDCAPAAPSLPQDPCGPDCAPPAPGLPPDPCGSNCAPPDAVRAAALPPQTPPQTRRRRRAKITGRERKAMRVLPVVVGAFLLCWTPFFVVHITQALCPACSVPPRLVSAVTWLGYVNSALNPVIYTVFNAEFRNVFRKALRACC
Description: Inhibition of D4 receptor (unknown origin)

D(1A) dopamine receptor [4] = molecular target: T4, D(1A) dopamine receptor (Homo sapiens, UniProt P21728)
T4 sequence (P21728 whole entry): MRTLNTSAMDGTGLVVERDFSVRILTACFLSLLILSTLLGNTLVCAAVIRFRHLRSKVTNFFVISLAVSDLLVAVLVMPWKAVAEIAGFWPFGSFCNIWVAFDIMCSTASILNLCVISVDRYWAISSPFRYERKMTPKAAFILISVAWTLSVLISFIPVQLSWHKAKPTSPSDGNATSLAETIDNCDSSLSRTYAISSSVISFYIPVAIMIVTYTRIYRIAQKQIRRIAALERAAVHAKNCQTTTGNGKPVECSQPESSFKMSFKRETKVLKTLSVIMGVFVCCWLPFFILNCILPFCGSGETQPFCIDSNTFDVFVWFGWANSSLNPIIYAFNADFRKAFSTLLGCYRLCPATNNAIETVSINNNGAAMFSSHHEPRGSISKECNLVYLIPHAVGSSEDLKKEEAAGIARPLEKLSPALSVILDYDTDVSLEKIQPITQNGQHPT
Description: Binding affinity to D1 receptor (unknown origin) assessed as inhibition constant

D(2) dopamine receptor [5] = molecular target: T5, D(2) dopamine receptor (Homo sapiens, UniProt P14416)
T5 sequence (P14416 whole entry): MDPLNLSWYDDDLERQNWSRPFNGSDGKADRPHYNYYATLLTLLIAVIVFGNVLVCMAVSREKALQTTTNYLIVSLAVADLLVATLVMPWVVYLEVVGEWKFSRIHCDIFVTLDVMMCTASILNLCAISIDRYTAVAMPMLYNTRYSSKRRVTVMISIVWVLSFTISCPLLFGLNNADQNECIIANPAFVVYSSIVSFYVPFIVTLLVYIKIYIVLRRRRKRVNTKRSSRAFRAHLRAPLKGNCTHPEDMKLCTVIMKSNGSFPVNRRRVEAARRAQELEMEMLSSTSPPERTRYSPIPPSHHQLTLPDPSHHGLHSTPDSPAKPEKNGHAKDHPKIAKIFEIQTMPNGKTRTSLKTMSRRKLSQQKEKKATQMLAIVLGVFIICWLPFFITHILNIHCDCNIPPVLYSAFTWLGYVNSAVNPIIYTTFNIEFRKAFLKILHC
Description: Binding affinity to D2 receptor (unknown origin) assessed as inhibition constant

D(3) dopamine receptor [6] = molecular target: T6, D(3) dopamine receptor (Homo sapiens, UniProt P35462)
T6 sequence (P35462 whole entry): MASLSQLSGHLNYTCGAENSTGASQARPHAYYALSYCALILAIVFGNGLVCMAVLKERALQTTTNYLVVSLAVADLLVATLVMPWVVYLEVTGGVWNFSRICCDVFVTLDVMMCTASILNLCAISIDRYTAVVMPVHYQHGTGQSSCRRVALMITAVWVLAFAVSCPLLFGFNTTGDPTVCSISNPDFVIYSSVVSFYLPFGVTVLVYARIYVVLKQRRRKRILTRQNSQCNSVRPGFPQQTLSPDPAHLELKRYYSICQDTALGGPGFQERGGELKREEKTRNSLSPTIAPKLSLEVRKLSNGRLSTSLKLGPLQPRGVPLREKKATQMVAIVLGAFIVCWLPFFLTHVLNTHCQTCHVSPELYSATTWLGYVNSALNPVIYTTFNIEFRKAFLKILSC
Description: Binding affinity to D3 receptor (unknown origin) assessed as inhibition constant

D(4) dopamine receptor [7] = molecular target: T3, D(4) dopamine receptor; remark: listed apart in the source
Description: Binding affinity to D4 receptor (unknown origin) assessed as inhibition constant

D(2) dopamine receptor [8] = molecular target: T5, D(2) dopamine receptor; remark: listed apart in the source
Description: Antagonist activity at D2 receptor (unknown origin)

[9] = molecular target: T7, 5-hydroxytryptamine receptor 2C (Homo sapiens, UniProt P28335)
T7 sequence (P28335 whole entry): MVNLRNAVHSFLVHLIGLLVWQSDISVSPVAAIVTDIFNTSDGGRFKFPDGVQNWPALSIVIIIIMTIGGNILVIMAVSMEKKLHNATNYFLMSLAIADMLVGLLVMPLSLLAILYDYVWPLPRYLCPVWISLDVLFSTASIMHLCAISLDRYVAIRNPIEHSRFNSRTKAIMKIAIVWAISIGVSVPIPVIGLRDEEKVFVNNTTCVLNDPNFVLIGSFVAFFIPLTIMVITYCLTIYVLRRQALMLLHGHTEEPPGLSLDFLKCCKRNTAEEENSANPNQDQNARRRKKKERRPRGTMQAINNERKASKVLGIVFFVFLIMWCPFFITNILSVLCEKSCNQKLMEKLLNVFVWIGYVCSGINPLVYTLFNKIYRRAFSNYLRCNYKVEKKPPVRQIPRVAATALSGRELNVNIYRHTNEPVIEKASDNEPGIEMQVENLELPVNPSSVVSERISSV
Description: Binding affinity to 5HT2C receptor (unknown origin) assessed as inhibition constant

[10] = molecular target: 5-hydroxytryptamine receptor 2A (Homo sapiens, UniProt P28223)
5-hydroxytryptamine receptor 2A, sequence (P28223 whole entry): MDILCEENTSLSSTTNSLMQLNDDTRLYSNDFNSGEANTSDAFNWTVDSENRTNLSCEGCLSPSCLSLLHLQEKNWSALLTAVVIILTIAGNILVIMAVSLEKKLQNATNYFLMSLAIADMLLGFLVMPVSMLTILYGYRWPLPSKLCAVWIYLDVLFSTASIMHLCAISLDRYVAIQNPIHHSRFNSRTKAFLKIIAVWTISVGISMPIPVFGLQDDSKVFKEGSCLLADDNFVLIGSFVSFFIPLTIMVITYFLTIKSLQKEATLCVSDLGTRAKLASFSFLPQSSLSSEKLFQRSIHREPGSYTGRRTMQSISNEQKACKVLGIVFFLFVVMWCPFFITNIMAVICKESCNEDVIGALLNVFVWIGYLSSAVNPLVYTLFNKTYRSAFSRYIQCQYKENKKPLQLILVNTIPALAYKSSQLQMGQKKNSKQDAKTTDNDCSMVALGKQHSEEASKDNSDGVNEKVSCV
Description: Binding affinity to 5HT2A (unknown origin) assessed as inhibition constant

[11] = molecular target: 5-hydroxytryptamine receptor 1D (Homo sapiens, UniProt P28221)
5-hydroxytryptamine receptor 1D, sequence (P28221 whole entry): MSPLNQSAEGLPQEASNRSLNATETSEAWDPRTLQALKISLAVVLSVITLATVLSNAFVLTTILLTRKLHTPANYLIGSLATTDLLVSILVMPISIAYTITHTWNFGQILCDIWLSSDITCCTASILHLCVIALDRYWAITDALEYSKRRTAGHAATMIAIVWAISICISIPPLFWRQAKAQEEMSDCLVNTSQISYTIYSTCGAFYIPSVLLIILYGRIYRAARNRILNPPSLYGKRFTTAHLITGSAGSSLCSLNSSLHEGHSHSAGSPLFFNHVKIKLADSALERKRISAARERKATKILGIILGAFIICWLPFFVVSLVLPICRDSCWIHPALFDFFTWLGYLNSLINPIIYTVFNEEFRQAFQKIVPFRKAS
Description: Binding affinity to 5HT1D receptor (unknown origin) assessed as inhibition constant

[12] = molecular target: 5-hydroxytryptamine receptor 7 (Homo sapiens, UniProt P34969)
5-hydroxytryptamine receptor 7, sequence (P34969 whole entry): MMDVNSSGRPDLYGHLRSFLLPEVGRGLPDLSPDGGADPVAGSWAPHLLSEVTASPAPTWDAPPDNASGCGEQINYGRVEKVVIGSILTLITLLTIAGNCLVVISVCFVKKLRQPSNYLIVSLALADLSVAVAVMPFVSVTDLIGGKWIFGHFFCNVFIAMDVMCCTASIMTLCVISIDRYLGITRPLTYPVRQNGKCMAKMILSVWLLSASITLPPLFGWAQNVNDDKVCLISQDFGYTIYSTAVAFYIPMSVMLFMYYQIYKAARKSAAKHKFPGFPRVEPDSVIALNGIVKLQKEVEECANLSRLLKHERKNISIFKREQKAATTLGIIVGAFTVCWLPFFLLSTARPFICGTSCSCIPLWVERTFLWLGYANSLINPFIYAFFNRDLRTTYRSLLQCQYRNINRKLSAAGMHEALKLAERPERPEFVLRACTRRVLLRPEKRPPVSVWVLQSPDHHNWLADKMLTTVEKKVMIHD
Description: Binding affinity to 5HT7 receptor (unknown origin) assessed as inhibition constant

[13] = molecular target: T8, Alpha-2C adrenergic receptor (Homo sapiens, UniProt P18825)
T8 sequence (P18825 whole entry): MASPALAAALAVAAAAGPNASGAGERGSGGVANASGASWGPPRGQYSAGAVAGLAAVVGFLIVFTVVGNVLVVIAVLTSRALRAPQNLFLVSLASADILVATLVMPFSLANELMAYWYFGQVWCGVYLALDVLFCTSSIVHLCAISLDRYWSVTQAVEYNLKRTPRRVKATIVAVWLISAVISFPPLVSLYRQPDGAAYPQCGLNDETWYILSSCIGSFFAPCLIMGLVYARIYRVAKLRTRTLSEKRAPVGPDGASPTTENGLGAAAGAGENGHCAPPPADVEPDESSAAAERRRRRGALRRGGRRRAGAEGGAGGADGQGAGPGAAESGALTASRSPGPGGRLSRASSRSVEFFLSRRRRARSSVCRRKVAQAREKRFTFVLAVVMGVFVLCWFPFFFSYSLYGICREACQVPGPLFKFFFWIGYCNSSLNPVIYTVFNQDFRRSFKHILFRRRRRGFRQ
Description: Binding affinity to alpha2C adrenergic receptor (unknown origin) assessed as inhibition constant

[14] = molecular target: T9, Alpha-1A adrenergic receptor (Homo sapiens, UniProt P35348)
T9 sequence (P35348 whole entry): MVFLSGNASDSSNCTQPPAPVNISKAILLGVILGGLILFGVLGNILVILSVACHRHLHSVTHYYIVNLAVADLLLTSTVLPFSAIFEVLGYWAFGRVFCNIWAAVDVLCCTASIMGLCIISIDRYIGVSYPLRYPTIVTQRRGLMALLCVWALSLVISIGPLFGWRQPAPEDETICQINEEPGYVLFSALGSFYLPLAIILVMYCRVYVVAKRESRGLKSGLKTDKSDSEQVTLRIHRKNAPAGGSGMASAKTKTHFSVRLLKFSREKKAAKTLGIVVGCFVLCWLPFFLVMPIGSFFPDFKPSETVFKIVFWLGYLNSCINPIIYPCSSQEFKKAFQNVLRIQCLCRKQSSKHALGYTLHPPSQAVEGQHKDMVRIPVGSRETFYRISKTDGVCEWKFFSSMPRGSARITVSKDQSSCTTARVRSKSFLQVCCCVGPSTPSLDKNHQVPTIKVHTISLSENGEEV
Description: Binding affinity to alpha1A adrenergic receptor (unknown origin) assessed as inhibition constant

[15] = molecular target: 5-hydroxytryptamine receptor 1B (Homo sapiens, UniProt P28222)
5-hydroxytryptamine receptor 1B, sequence (P28222 whole entry): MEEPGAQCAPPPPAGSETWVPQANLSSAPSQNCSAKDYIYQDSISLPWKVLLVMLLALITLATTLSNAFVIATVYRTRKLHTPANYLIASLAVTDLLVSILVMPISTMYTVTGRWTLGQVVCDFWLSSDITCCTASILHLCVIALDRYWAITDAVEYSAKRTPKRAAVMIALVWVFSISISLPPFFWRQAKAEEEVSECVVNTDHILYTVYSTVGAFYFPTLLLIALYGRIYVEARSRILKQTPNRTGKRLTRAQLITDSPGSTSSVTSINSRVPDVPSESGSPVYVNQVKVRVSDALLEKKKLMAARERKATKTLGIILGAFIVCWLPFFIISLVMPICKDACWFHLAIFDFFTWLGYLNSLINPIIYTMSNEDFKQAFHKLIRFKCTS
Description: Binding affinity to 5HT1B receptor (unknown origin) assessed as inhibition constant

D(4) dopamine receptor [16] = molecular target: T3, D(4) dopamine receptor; remark: listed apart in the source
Description: Agonist activity at D4 receptor (unknown origin)

D(2) dopamine receptor [17] = molecular target: T5, D(2) dopamine receptor; remark: listed apart in the source
Description: Binding affinity to D2S receptor (unknown origin) assessed as inhibition constant

D(2) dopamine receptor [18] = molecular target: T5, D(2) dopamine receptor; remark: listed apart in the source
Description: Inhibition of D2 receptor (unknown origin)

D(1A) dopamine receptor [19] = molecular target: T4, D(1A) dopamine receptor; remark: listed apart in the source
Description: Inhibition of D1 receptor (unknown origin)

D(2) dopamine receptor [20] = molecular target: T5, D(2) dopamine receptor; remark: listed apart in the source
Description: Binding affinity to D2L receptor (unknown origin) assessed as inhibition constant

D(3) dopamine receptor [21] = molecular target: T6, D(3) dopamine receptor; remark: listed apart in the source
Description: Inhibition of D3 receptor (unknown origin)

Vasopressin V1a receptor, sequence (P37288 whole entry): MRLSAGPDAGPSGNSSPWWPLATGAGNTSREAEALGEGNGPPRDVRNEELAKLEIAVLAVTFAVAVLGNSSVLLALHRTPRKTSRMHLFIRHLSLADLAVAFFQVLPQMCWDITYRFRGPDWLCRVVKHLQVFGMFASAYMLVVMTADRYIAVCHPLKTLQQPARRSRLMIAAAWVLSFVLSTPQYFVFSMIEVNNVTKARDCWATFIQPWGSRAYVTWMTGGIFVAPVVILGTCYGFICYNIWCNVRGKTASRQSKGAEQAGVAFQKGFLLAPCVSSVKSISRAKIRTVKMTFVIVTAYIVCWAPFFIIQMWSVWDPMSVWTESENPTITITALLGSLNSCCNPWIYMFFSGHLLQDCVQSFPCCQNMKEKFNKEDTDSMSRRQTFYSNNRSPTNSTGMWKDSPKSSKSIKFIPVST

Q: Which results are given for `O=c1cc(-c2ccc(O)c(O)c2)oc2cc(O)cc(O)c12` [LUTEOLIN]?
A: IC50 (Vasopressin V1a receptor): 19500 nM; IC50 [1]: > 100000 nM; IC50 [2]: 8570 nM; IC50 (D(4) dopamine receptor [3]): 39600 nM

Q: `COc1cc2c(cc1O)[C@@H]1Cc3ccc(O)c(OC)c3CN1CC2` [STEPHOLIDINE] was tested. Which Ki (D(1A) dopamine receptor [4]) did it give?
A: 5.1 nM

Q: And the Ki (D(2) dopamine receptor [5])?
A: 11.6 nM

Q: What about the Ki (D(3) dopamine receptor [6]) of the same compound?
A: 23.4 nM

Q: What about the Ki (D(4) dopamine receptor [7]) of the same compound?
A: 1450 nM

Q: What does the source list for `CCCN1CCc2cccc3c2[C@H]1Cc1cccc(OC(C)=O)c1-3`?
A: Ki (D(1A) dopamine receptor [4]): > 10000 nM; Ki (D(2) dopamine receptor [5]): 72.3 nM

Q: With `COc1cc2c(cc1OC)[C@@H]1Cc3ccc(OC)c(OC)c3CN1CC2` [TETRAHYDROPALMATINE] as the compound, how does the Ki (D(1A) dopamine receptor [4]) read?
A: 124 nM

Q: What about the Ki (D(2) dopamine receptor [5]) of the same compound?
A: 388 nM

Q: Which IC50 (D(2) dopamine receptor [8]) does the source give for `COc1cc2c(cc1OC)-c1c(OC)c(OC)cc3c1[C@H](C2)N(C)CC3` [GLAUCINE] here?
A: 3020 nM

Q: With `OCCN1CCN(CCCN2c3ccccc3Sc3ccc(C(F)(F)F)cc32)CC1` [FLUPHENAZINE] as the compound, how does the Ki (D(4) dopamine receptor [7]) read?
A: 130 nM

Q: Which Ki [9] does the source give for `Cc1nc2n(c(=O)c1CCN1CCC(c3noc4cc(F)ccc34)CC1)CCCC2O` (stereo not drawn) [PALIPERIDONE] here?
A: 19 nM

Q: And the Ki [10]?
A: 0.83 nM

Q: And the Ki (D(1A) dopamine receptor [4])?
A: 554 nM

Q: What about the Ki [11] of the same compound?
A: 7.3 nM

Q: What about the Ki (D(2) dopamine receptor [5]) of the same compound?
A: 1.6 nM

Q: What about the Ki [12] of the same compound?
A: 6.8 nM

Q: What about the Ki [13] of the same compound?
A: 2.7 nM

Q: What about the Ki [14] of the same compound?
A: 11 nM

Q: And the Ki [15]?
A: 111 nM

Q: And the Ki (D(3) dopamine receptor [6])?
A: 7.5 nM

Q: How did the IC50 [1] turn out when `OCc1c(Br)c(O)c(O)c(Br)c1Br` was run?
A: 151000 nM

Q: What about the IC50 [2] of the same compound?
A: 205000 nM

Q: And the EC50 (D(4) dopamine receptor [16])?
A: 57200 nM

Q: `COc1cc2c(cc1O)CN1CCc3cc(OC)c(O)cc3[C@@H]1C2` was tested. Which Ki (D(2) dopamine receptor [17]) did it give?
A: 514 nM

Q: With `CCCN1CCc2cc(OCCCF)cc3c2[C@H]1Cc1cccc(O)c1-3` as the compound, how does the Ki (D(1A) dopamine receptor [4]) read?
A: 0.54 nM

Q: Which IC50 (D(2) dopamine receptor [18]) does the source give for `COc1ccc(C[C@H]2c3cc(O)c(OC)cc3CCN2C)cc1O` [(S)-RETICULINE] here?
A: 470 nM

Q: And the IC50 (D(1A) dopamine receptor [19])?
A: 1800 nM

Q: What does the source list for `C=CCN1C[C@H](C(=O)N(CCCN(C)C)C(=O)NCC)C[C@@H]2c3cccc4[nH]cc(c34)C[C@H]21` [CABERGOLINE]?
A: Ki (D(2) dopamine receptor [20]): 0.36 nM; Ki (D(1A) dopamine receptor [4]): 3800 nM; Ki (D(2) dopamine receptor [5]): 0.36 nM

Q: What does the source list for `COc1cc2c(cc1O)C[C@@H]1c3c(ccc(O)c3O2)CCN1C`?
A: IC50 (D(2) dopamine receptor [18]): 220 nM; IC50 (D(1A) dopamine receptor [19]): 100 nM

Q: For `O=C(/C=C/c1ccc(O)cc1)c1ccc(O)cc1O` [ISOLIQUIRITIGENIN], which IC50 (D(3) dopamine receptor [21]) is on record?
A: 62300 nM

Q: What about the IC50 (Vasopressin V1a receptor) of the same compound?
A: 78600 nM

— ChEMBL document CHEMBL5523761 (J Med Chem, 2024)
